From a compilation of properties of binary mixtures (doi:10.1007/s10973-023-12194-1)

Assay: xn = mol fraction of the nth substance listed
Settings: 101.3 kPa

CCCC[NH3+].O=[N+]([O-])[O-] + O
x2 = 0.435
Settings | viscosity [mPa·s]
283.15 K | 43.41
288.15 K | 35.87
293.15 K | 29.92
303.15 K | 21.45
308.15 K | 18.52
313.15 K | 16.04
318.15 K | 14.65
323.15 K | 12.38
328.15 K | 11.26
333.15 K | 9.535
338.15 K | 8.605
343.15 K | 7.11
348.15 K | 6.46
353.15 K | 5.89
358.15 K | 5.4
363.15 K | 4.98
368.15 K | 4.6
373.15 K | 4.266

CC[NH3+].O=[N+]([O-])[O-] + O
x2 = 0.574
Settings | viscosity [mPa·s]
283.15 K | 8.965
288.15 K | 6.679
293.15 K | 6.018
298.15 K | 5.487
313.15 K | 4.258
318.15 K | 3.893
323.15 K | 3.622
333.15 K | 3.173
338.15 K | 3.007
348.15 K | 1.807
353.15 K | 1.695
358.15 K | 1.589
363.15 K | 1.492
368.15 K | 1.434
373.15 K | 1.343
